Data: article PMC12037037 (Proceedings of the National Academy of Sciences of the …, 2025)
Entries after “also recorded” stand apart in the source; their conditions may differ.

Legend:
[1] = target: T1, human 5-HT2B receptor (Homo sapiens, UniProt P41595); assay: IP1 functional assay (5-HT2BR); format: cell-based
T1 construct: host or cells: CHO
Method: (§2) IP1 Assay (5-HT2AR and 5-HT2CR). The 5-HT2AR and 5-HT2CR IPOne HTRF assays were performed at Epics
(§3) Therapeutics S.A. (Belgium, FAST-0505I) using conventional methods. Experiments were performed using the free bases
(§4) of (+)-JRT and (–)-JRT. Briefly, CHO-K1 cells expressing human recombinant 5-HT2AR grown to mid-log phase in culture
(§5) media without antibiotics were detached with PBS-EDTA, centrifuged, and resuspended in medium without antibiotics
(§6) buffer. Then, 20,000 cells were distributed in a 96-well plate and incubated overnight at 37 °C with 5% CO2. For agonist
(§7) were added to each well. The plate was incubated for 60 min at 37 °C with 5% CO2. After addition of the lysis buffer containing
(§8) IP1-d2 and anti-IP1 cryptate detection reagents, plates were incubated for 1 h at room temperature and fluorescence ratios
(§9) were measured according to the manufacturer’s specifications using the HTRF kit.
IP1 Assay (5-HT2BR). […]
(§10) Following incubation, the cells are lysed and the fluorescence acceptor (D2-
(§11) labeled IP1) and fluorescence donor (anti-IP1 antibody labeled with europium cryptate) were added. […]
(§12) temperature, the fluorescence transfer was measured at lex = 337 nm and lem = 620 and 665 nm using a microplate
(§13) reader (Envision, Perkin Elmer). The IP1 concentration was determined by dividing the signal measured at 665 nm by that
measured at 620 nm (ratio). […]

[2] = tested on: C57BL/6J mice; assay: Head-twitch response (HTR) assay; format: in vivo; details: (+)-JRT 1 mg/kg IP pretreatment 15 min + LSD 0.2 mg/kg IP; mean ± SEM
Method: Head-Twitch Response Assay. The HTR assay was performed using equal numbers of male and female C57BL/6J mice.
The mice were obtained from The Jackson Laboratory (Sacramento, CA) and were approximately 8 – 12 weeks old at the time of the experiments. After compound administration, animals were placed into an empty arena (40 cm x 40 cm) and filmed for 20 min. The arena was cleaned with 70% ethanol between trials.

[3] = tested on: male Long Evans rats; assay: Probabilistic reward task (PRT) under chronic cold-water stress; format: in vivo; details: for Response bias (log b) (Figure 6G): JRT 1 mg/kg
[4] = target: T2, human ether-a-go-go related gene (hERG) channels (Homo sapiens, UniProt Q12809); assay: hERG inhibition assay (Apconix); format: biochemical
T2 construct: Apconix
T2 sequence (Q12809 whole entry): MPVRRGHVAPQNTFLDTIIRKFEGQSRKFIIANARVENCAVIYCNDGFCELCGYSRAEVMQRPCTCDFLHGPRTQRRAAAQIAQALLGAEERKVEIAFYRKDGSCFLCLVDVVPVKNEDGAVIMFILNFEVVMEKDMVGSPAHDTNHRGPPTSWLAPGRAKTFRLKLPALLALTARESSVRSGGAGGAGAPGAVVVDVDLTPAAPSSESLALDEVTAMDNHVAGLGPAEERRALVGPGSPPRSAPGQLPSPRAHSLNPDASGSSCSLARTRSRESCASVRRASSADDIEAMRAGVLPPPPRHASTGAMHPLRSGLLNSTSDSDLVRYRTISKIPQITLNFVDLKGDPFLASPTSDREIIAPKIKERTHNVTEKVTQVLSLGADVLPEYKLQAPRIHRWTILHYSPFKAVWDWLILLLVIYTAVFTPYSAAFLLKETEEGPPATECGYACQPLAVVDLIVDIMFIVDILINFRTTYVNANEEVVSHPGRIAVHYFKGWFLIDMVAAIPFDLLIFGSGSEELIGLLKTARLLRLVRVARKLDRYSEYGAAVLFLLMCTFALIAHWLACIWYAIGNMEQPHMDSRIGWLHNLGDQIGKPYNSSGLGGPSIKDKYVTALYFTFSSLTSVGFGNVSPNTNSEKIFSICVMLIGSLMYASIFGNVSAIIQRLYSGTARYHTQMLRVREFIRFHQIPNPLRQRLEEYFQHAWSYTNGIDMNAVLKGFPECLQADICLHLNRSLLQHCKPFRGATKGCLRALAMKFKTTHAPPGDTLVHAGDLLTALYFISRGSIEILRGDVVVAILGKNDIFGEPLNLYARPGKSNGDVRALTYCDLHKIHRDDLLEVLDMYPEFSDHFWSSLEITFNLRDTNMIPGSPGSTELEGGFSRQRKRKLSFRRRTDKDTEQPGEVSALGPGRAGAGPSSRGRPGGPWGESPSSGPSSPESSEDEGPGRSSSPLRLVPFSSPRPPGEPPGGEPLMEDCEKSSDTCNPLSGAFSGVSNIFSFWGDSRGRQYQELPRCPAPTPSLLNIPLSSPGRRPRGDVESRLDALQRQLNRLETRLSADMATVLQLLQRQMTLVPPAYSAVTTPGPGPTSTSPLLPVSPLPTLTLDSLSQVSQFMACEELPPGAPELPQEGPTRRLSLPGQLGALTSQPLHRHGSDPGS
Method: (§1) (1 picture or pasted object on this page, not shown here)
Comparison Between WT and S242A5.46 psychLight Variants. Activity in WT and S242A5.46 mutant forms of PsychLight was quantified by deriving ligand activity ratios (log(Emax/EC50)). […]
and (+)-JRT were fit to a log(agonist) vs. response (three parameters) curve. The Emax/EC50 analysis was performed as previously described in detail by others (16):
Response = Basal + E!"# − Basal where Emax and Basal represent the top and bottom asymptotes of the curve fit, respectively; EC50 represents the concentration that gives a response halfway between Emax and Basal; and Log[A] is the logarithm of the agonist concentration. Then, ligand activity ratios, log(Emax/EC50) were calculated for each test ligand and statistical comparisons made between each other and between genotypes using a two-way ANOVA and significant interaction effects followed by a Šídák's multiple comparisons test.
ADME and hERG Inhbition Assays. […]
Briefly, 96 well plates were coated with poly-D-lysine and approximately 15,000 cells/well. […] Images were analyzed using the Simple Neurite Tracer and Sholl analysis plug-ins for ImageJ Fiji (version 1.51N). […] All images were taken and analyzed by an experimenter blinded to treatment conditions.
Spinogenesis Assays Using Cultured Rat Cortical Neurons. […] Images were analyzed using ImageJ Fiji (version 1.51N). […]

[5] = target: T3, human recombinant 5-HT2AR (Homo sapiens, UniProt P28223); assay: IP1 functional assay (5-HT2AR); format: cell-based; details: 5-HT2A, functional assay relevant to G protein activation (IP1), agonist mode
T3 construct: host or cells: CHO-K1
T3 sequence (P28223 whole entry): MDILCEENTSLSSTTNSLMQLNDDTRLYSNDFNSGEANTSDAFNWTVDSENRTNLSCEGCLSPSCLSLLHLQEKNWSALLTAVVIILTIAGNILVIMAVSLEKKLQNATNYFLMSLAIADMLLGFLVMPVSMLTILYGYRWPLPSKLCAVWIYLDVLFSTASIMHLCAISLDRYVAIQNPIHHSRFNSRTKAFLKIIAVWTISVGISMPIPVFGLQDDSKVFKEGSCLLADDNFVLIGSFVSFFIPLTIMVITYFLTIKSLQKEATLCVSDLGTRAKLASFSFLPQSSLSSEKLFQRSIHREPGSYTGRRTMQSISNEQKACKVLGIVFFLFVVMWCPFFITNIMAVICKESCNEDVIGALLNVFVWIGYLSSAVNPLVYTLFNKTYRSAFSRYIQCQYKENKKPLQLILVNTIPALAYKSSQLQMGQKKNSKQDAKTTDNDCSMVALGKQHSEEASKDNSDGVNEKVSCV
Method: as §2, §3, §4, §5, §6, §7, §8, §9
IP1 Assay (5-HT2BR). […]
as §10, §11, §12, §13
measured at 620 nm (ratio). […]

[6] = target: 5-HT5A (Homo sapiens, UniProt P47898); assay: Functional assay at 5-HT5A (Fig. S4); format: cell-based
Sequence of 5-HT5A (P47898 whole entry): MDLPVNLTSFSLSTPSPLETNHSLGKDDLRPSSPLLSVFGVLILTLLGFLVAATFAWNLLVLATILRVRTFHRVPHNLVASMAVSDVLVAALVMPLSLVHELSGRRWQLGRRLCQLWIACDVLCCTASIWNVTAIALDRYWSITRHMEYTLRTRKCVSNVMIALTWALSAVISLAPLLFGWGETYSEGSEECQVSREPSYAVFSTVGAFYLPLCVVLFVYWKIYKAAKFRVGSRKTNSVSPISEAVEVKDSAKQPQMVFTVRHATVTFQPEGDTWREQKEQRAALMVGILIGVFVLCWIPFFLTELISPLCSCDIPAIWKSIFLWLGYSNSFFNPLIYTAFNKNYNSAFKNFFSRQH
Text: Figure S4. […] Radioligand binding (RLB) (top) and IP1 functional assays (bottom) for 5-HT1A (A), 5-HT5a (B), 5-HT6 (C), and 5-HT7 (D) receptors. Agonist or antagonist mode is indicated in the title of each graph. Data represent the mean ± SEM of 2 technical replicates.
5-carboxamidotryptamine; ND = not determined for incomplete curves.
as §1

T1 sequence (P41595 whole entry): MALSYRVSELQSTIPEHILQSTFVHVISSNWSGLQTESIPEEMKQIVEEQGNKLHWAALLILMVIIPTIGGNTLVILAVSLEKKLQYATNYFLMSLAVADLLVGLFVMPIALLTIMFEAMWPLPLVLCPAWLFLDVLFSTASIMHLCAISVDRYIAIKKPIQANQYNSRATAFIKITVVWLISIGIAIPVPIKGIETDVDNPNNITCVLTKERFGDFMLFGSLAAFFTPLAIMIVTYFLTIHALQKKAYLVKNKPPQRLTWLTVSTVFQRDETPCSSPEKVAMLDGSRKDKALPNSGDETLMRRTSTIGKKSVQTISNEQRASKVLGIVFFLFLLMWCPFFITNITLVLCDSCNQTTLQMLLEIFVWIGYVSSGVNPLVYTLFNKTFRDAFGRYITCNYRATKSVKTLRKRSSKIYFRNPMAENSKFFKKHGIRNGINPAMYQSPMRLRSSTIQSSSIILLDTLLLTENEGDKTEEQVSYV

For `CCN(CC)C(=O)[C@@H]1C=C2c3cccc4ccn(c34)C[C@H]2N(C)C1` [(+)-JRT], the Emax [1] was 48%, the “Head-twitches over 20 min (Figure 5A Antagonism)” value [2] was 1.500 ± 0.3450 and the “Persistence of the effect on response bias following a single dose” value ([3]; 1 mg/kg, continued daily cold-water stress) was “at least 3 d”. The “Response bias (log b) (Figure 6G)” value ([3]; Day 2, Day 1 0.131 ± 0.082) was 0.406 ± 0.069, the “Response bias (log b) (Figure 6G)” value ([3]; Day 3, Day 1 0.131 ± 0.082) was 0.474 ± 0.112 and the “Response bias (log b) (Figure 6G)” value ([3]; Day 11, Day 1 0.131 ± 0.082) was 0.290 ± 0.061. For the same compound, the “Response bias (log b) (Figure 6G)” value ([3]; Day 1 (stressed, before drug) 0.131 ± 0.082) was 0.491 ± 0.071, the hERG channel inhibition [4] was “does not inhibit hERG channels; also recorded: did not inhibit” and the Emax [5] was 81%. The “Functional activity at 5-HT5A” value [6] was “antagonist”.
